Data set [1] concerns the target Epidermal growth factor receptor (Homo sapiens, UniProt P00533, L858R/T790M). Kind of data set: Inhibition of recombinant N-terminal GST-tagged human EGFR T790M/L858R mutant (696 to end residues) extracted from baculovirus infect Sf21 insect cells incubated for 1 hrs by spectrophotometric analysis.
Data set [2] concerns the target Epidermal growth factor receptor (Homo sapiens, UniProt P00533, C797S/EX19DEL/T790M). Kind of data set: Inhibition of recombinant N-terminal GST-tagged human EGFR 19del/T790M/C797S mutant (668 to end residues) extracted from Sf9 insect cells incubated for 1 hrs by spectrophotometric analysis. The format is cell-free.
Data set [3] has as its target Epidermal growth factor receptor (Homo sapiens, UniProt P00533). Kind of data set: Inhibition of recombinant wildtype N-terminal GST-tagged human EGFR kinase domain (696 to end residues) extracted from baculovirus infect Sf21 insect cells incubated for 1 hrs by spectrophotometric analysis.
Data set [4] in a line: Induction of apoptosis in mouse BaF3 cells harboring EGFR 19del/T790M/C797S mutant assessed as early apoptotic cells at 100 nM incubated for 48 hrs by Annexin V-FITC/PI staining based flow cytometric analysis (reference value: 0.36 %). The data set is classed as functional. Background: A flow cytometer gives signals particle by particle.
Data set [5] is described as follows: Induction of apoptosis in mouse BaF3 cells harboring EGFR 19del/T790M/C797S mutant assessed as late apoptotic cells at 1000 nM incubated for 48 hrs by Annexin V-FITC/PI staining based flow cytometric analysis (reference value: 1.47 %). The data set is classed as functional.
Data set [6] in a line: Induction of apoptosis in mouse BaF3 cells harboring EGFR 19del/T790M/C797S mutant assessed as late apoptotic cells at 100 nM incubated for 48 hrs by Annexin V-FITC/PI staining based flow cytometric analysis (reference value: 1.47 %). The format is functional.
Data set [7] can be described thus: Induction of apoptosis in mouse BaF3 cells harboring EGFR 19del/T790M/C797S mutant assessed as late apoptotic cells at 30 nM incubated for 48 hrs by Annexin V-FITC/PI staining based flow cytometric analysis (reference value: 1.47 %). The data set is classed as functional.
A short description of data set [8]: Induction of apoptosis in mouse BaF3 cells harboring EGFR 19del/T790M/C797S mutant assessed as early apoptotic cells at 1000 nM incubated for 48 hrs by Annexin V-FITC/PI staining based flow cytometric analysis (reference value: 0.36 %). The format is functional.
Data set [9] is described as follows: Antiproliferative activity against mouse BaF3 cells assessed as inhibition of cell proliferation incubated for 72 hrs by CCK-8 assay. The format is toxicity, cell-based. Background: Tetrazolium assays rely on reduction of a dye to a coloured formazan, in cell work by metabolically active cells.
Data set [10] relates to BaF3. Kind of data set: cells. Particulars: Mus musculus, BaF3, 72 h.
Data set [11] concerns BaF3. Kind of data set: cells. The conditions noted are these: Mus musculus, BaF3, 72 h. This is another data set of the same source.
Data set [12] is described as follows: Induction of apoptosis in mouse BaF3 cells harboring EGFR 19del/T790M/C797S mutant assessed as early apoptotic cells at 30 nM incubated for 48 hrs by Annexin V-FITC/PI staining based flow cytometric analysis (reference value: 0.36 %). The format is functional.
Data set [13] in a line: Induction of apoptosis in mouse BaF3 cells harboring EGFR 19del/T790M/C797S mutant assessed as late apoptotic cells at 300 nM incubated for 48 hrs by Annexin V-FITC/PI staining based flow cytometric analysis (reference value: 1.47 %). The data set is classed as functional.
Data set [14] concerns BaF3. Kind of data set: Antitumor activity against mouse BaF3 cells harboring 19del/T790M/C797S mutant implanted in female BALB/c nu/nu mouse assessed as tumor growth inhibition at 20 mg/kg, po administered once daily for 9 days relative to control. The conditions noted are these: BaF3, 216 h, time 9 day, read-out: TGI. The format is functional.
The test system of the next data set is A-431. The experiment in a line: cells. Particulars: Homo sapiens, A-431, 72 h.
A short description of data set [15]: Induction of apoptosis in mouse BaF3 cells harboring EGFR 19del/T790M/C797S mutant assessed as early apoptotic cells at 300 nM incubated for 48 hrs by Annexin V-FITC/PI staining based flow cytometric analysis (reference value: 0.36 %). The data set is classed as functional.
The nature of a further data set: cells. The conditions noted are these: Homo sapiens, PC9-OR, 72 h.
Data set [16] can be described thus: Induction of apoptosis in mouse BaF3 cells harboring EGFR 19del/T790M/C797S mutant assessed as early apoptotic cells at 100 nM incubated for 48 hrs by Annexin V-FITC/PI staining based flow cytometric analysis (reference value: 2.48 %). The format is functional.
The nature of data set [17]: Induction of apoptosis in mouse BaF3 cells harboring EGFR 19del/T790M/C797S mutant assessed as late apoptotic cells at 300 nM incubated for 48 hrs by Annexin V-FITC/PI staining based flow cytometric analysis (reference value: 1.75 %). The data set is classed as functional.
Data set [18] can be described thus: Induction of apoptosis in mouse BaF3 cells harboring EGFR 19del/T790M/C797S mutant assessed as late apoptotic cells at 100 nM incubated for 48 hrs by Annexin V-FITC/PI staining based flow cytometric analysis (reference value: 1.75 %). The data set is classed as functional.
A short description of data set [19]: Induction of apoptosis in mouse BaF3 cells harboring EGFR 19del/T790M/C797S mutant assessed as early apoptotic cells at 30 nM incubated for 48 hrs by Annexin V-FITC/PI staining based flow cytometric analysis (reference value: 2.48 %). The data set is classed as functional.
Data set [20] in a line: Induction of apoptosis in mouse BaF3 cells harboring EGFR 19del/T790M/C797S mutant assessed as late apoptotic cells at 1000 nM incubated for 48 hrs by Annexin V-FITC/PI staining based flow cytometric analysis (reference value: 1.75 %). The format is functional.
Data set [21] is described as follows: Induction of apoptosis in mouse BaF3 cells harboring EGFR 19del/T790M/C797S mutant assessed as late apoptotic cells at 30 nM incubated for 48 hrs by Annexin V-FITC/PI staining based flow cytometric analysis (reference value: 1.75 %). The data set is classed as functional.
Data set [22] can be described thus: Induction of apoptosis in mouse BaF3 cells harboring EGFR 19del/T790M/C797S mutant assessed as early apoptotic cells at 300 nM incubated for 48 hrs by Annexin V-FITC/PI staining based flow cytometric analysis (reference value: 2.48 %). The data set is classed as functional.
The nature of data set [23]: Induction of apoptosis in mouse BaF3 cells harboring EGFR 19del/T790M/C797S mutant assessed as early apoptotic cells at 1000 nM incubated for 48 hrs by Annexin V-FITC/PI staining based flow cytometric analysis (reference value: 2.48 %). The format is functional.
Data set [24] concerns the target Epidermal growth factor receptor (Homo sapiens, UniProt P00533, C797S/L858R/T790M). Kind of data set: Inhibition of recombinant C-terminal His-tagged/N-terminal GST-tagged human EGFR T790M/C797S/L858R mutant (668 to 1210 residues) extracted from baculovirus infected Sf9 insect cells incubated for 1 hrs by spectrophotometric analysis.

Molecules are shown by their SMILES.

Epidermal growth factor receptor (Homo sapiens, UniProt P00533), sequence (P00533 whole entry, the tested form may be a part): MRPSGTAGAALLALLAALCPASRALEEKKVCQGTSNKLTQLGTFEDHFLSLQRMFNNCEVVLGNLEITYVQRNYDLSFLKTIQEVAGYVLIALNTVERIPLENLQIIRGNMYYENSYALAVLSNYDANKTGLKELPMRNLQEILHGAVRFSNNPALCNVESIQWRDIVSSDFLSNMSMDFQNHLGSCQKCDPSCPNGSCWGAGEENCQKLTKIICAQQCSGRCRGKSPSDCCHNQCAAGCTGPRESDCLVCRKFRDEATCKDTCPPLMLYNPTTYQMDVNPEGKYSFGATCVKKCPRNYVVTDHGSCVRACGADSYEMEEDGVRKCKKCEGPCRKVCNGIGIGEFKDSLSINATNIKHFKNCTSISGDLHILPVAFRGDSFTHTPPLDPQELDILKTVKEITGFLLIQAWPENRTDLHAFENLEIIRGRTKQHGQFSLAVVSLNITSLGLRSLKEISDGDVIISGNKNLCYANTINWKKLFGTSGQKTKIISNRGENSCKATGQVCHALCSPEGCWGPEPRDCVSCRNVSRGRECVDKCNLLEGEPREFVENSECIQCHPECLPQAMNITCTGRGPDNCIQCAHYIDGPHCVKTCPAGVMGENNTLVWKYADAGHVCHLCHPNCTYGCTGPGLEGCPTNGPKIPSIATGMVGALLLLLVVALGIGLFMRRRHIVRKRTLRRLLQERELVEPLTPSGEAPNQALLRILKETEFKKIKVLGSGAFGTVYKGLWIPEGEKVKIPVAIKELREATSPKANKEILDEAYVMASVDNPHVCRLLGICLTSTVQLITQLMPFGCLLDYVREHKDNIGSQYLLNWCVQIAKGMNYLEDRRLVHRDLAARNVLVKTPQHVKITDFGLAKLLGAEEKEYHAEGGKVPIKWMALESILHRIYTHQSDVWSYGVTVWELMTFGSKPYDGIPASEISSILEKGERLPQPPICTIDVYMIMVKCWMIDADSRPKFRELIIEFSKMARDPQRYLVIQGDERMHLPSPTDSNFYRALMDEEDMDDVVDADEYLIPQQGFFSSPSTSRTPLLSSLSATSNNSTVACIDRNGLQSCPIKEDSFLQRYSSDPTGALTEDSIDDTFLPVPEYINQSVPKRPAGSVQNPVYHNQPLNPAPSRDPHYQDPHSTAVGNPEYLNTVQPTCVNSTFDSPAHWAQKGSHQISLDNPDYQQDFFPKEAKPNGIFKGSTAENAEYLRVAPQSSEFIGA
Epidermal growth factor receptor (Homo sapiens, UniProt P00533, C797S/EX19DEL/T790M), sequence (P00533 whole entry, looked up, stated change not applied, the tested form may be a part): as the sequence (P00533 whole entry, the tested form may be a part) above
Epidermal growth factor receptor (Homo sapiens, UniProt P00533, L858R/T790M), sequence (P00533 25-1210 T790M/L858R limits assumed): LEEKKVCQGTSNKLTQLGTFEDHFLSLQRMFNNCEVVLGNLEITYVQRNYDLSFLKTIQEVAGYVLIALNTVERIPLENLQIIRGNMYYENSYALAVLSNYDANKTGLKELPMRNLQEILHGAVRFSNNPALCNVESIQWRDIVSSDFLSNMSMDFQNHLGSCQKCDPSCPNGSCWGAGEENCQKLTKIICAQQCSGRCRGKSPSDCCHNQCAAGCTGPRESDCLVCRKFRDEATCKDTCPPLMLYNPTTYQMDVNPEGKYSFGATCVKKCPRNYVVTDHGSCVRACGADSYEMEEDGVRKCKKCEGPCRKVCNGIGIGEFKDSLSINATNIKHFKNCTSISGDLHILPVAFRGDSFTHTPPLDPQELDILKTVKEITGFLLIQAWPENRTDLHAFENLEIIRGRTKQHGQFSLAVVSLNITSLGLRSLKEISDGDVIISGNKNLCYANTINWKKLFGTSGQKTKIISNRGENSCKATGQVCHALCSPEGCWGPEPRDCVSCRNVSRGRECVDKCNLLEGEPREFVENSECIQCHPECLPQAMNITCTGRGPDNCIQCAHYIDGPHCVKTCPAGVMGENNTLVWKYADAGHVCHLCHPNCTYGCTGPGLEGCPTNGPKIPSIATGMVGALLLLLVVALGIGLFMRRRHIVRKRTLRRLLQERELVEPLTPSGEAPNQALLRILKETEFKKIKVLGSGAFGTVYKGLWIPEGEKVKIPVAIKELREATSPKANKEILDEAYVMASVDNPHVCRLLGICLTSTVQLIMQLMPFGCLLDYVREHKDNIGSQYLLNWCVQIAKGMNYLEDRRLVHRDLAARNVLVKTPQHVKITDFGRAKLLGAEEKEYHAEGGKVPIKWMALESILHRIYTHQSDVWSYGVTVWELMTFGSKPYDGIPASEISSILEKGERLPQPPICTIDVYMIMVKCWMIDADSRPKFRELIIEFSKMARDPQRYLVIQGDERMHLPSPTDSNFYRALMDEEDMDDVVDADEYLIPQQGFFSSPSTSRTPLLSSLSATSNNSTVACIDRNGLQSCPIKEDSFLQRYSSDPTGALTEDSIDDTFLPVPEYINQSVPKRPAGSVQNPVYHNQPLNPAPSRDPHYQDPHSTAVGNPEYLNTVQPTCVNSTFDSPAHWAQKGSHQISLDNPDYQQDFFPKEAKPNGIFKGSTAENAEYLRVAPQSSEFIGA
Epidermal growth factor receptor (Homo sapiens, UniProt P00533, C797S/L858R/T790M), sequence (P00533 25-1210 T790M/C797S/L858R limits assumed): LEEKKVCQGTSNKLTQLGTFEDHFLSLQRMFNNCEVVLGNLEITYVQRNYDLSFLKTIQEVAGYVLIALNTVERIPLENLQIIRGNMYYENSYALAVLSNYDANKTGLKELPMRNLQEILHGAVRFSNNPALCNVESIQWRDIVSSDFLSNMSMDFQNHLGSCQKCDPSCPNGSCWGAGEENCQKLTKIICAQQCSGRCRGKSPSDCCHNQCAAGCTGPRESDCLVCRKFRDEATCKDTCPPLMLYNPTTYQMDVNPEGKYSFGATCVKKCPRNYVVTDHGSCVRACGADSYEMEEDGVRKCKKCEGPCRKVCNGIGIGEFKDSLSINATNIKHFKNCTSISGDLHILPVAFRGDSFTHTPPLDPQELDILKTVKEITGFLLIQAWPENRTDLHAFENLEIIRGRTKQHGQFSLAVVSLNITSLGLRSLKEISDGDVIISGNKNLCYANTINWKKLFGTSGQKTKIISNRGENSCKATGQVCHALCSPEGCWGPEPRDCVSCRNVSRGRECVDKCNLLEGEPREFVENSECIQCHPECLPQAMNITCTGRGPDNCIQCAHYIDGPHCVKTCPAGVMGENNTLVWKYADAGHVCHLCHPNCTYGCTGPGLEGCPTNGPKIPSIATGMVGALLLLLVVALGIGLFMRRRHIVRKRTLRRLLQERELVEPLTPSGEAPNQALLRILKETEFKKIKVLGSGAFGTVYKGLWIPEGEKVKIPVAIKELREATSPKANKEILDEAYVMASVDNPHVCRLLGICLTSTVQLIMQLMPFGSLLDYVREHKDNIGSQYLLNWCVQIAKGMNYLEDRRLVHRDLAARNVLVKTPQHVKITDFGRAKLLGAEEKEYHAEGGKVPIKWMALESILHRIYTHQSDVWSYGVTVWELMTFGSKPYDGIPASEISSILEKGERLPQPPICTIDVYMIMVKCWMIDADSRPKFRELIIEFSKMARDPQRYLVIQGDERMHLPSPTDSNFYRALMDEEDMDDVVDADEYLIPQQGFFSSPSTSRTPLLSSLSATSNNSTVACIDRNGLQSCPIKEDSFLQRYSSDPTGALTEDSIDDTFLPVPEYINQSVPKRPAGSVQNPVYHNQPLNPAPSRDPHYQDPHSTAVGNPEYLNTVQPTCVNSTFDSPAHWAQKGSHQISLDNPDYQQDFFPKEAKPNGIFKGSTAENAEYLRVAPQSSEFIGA
Description for A-431: Antiproliferative activity against human A-431 cells harboring wildtype EGFR assessed as inhibition of cell proliferation measured after 72 hrs by SRB assay

In general, IC50 refers to the concentration needed to halve the response being measured. Regarding `COc1cc(N(C)CCN(C)C)c2cc1Nc1nccc(n1)-c1cnn(c1)CCCCC(=O)N2`, the IC50 in [1], in [2] and in data set [3] was more than 1000 nM throughout.
With `COc1cc(N2CCC(N3CCN(C)CC3)CC2)c(C)cc1Nc1ncc(Br)c(Nc2ccc3nccnc3c2P(C)(C)=O)n1`, the Activity in [4] is recorded as 6.67%; in data set [5] it was 22.63%; in [6] it was 3.84%; in [7], 1.98%; in data set [8] it was 64.67%; in data set [12], 2.39%. The Activity in data set [13] is 18.4%; in [15], 50.63%. Further, the IC50 at 72 h in [9] was 2040 nM. Moreover, the IC50 in the data set with BaF3 [10] came to 100 nM; with BaF3 [11] it was 176 nM; with A-431, 302 nM; in “cells” it was 94 nM. In addition, in the data set on BaF3 [14], the inhibition in vivo at 20 mg/kg came to 78.4%.
Consider `COc1cc(N(C)CCN(C)C)c2cc1Nc1ncc(C)c(n1)Nc1ccc(cc1P(C)(C)=O)OCCCCC(=O)N2`, for which the IC50 at 72 h in data set [9] was more than 10000 nM. For the same compound, the IC50 with BaF3 [10] is more than 10000 nM; in the data set on BaF3 [11], more than 10000 nM; in the data set with A-431, 4370 nM; in “cells”, 2330 nM.
On to `COc1cc(N(C)CCN(C)C)c2cc1Nc1ncc(C)c(n1)Nc1ccc(cc1P(C)(C)=O)OCCCCCC2`, for which the IC50 at 72 h in [9] was more than 10000 nM. The IC50 with BaF3 [10] is 1730 nM; in the data set with BaF3 [11], 2090 nM; in the data set on A-431, more than 10000 nM; in the data set “cells” it was 1000 nM.
For `COc1cc(N2CCN(C)CC2)c2cc1Nc1ncc(C)c(n1)Nc1ccc(cc1P(C)(C)=O)OCCCn1cc-2cn1`, in data set [9], the IC50 at 72 h is 2250 nM. The IC50 is less than 16 nM with BaF3 [10], 146 nM in the data set with BaF3 [11], 161 nM in the data set with A-431 and 62 nM in the data set “cells”.
For the compound `COc1cc(N(C)CCN(C)C)c2cc1Nc1nccc(n1)-c1cc(C#N)n(c1)CCCCC(=O)N2`, the IC50 in data set [1], in [2] and in [3] was more than 1000 nM in each case.
As for `COc1cc(N(C)CCN(C)C)c2cc1Nc1ncc(C)c(n1)Nc1ccc(cc1P(C)(C)=O)OCCCn1cc-2cn1`, the IC50 at 72 h in data set [9] is more than 10000 nM. In addition, the IC50 with BaF3 [10] was 174 nM; in the data set on BaF3 [11], 394 nM; in the data set with A-431 it was more than 10000 nM; in “cells”, 104 nM.
In the case of `COc1cc(N(C)CCN(C)C)c2cc1Nc1nccc(n1)-c1cn(c3cc(P(C)(C)=O)ccc13)CCCCC(=O)N2`, the IC50 in data set [1], in data set [2] and in [3] was more than 1000 nM throughout.
Take `COc1cc(N2CCC(N3CCN(C)CC3)CC2)ccc1Nc1ncc(Cl)c(Nc2ccccc2P(C)(C)=O)n1` [BRIGATINIB]: the Activity in data set [16] was 3.51%; in data set [17], 1.86%; in data set [18], 1.3%; in data set [19] it was 2.4%; in data set [20], 6.87%; in data set [21] it was 1.21%. For the same compound, the Activity is 4.25% in data set [22] and 32.44% in data set [23]. Moreover, the IC50 at 72 h in data set [9] was determined as 2380 nM. The IC50 in the data set with BaF3 [10] came to 382 nM; in the data set on BaF3 [11], 392 nM; in the data set on A-431 it was 436 nM; in “cells” it was 314 nM.
Take `COc1cc(N2CCC(N3CCN(C)CC3)CC2)c2cc1Nc1ncc(C)c(n1)Nc1ccc(cc1P(C)(C)=O)OCCCn1cc-2cn1`: the IC50 at 72 h in [9] came to 2770 nM. The IC50 in the data set on BaF3 [10] was found to be 41 nM; in the data set on BaF3 [11], 313 nM; with A-431 it was 158 nM; in the data set “cells”, 38 nM.
In the case of `COc1cc(N(C)CCN(C)C)c2cc1Nc1ncc(C(=O)OC(C)C)c(n1)Nc1ccc(cc1P(C)(C)=O)OCCCCC(=O)N2`, the IC50 in data set [1], in data set [2], in data set [24] and in data set [3] was more than 1000 nM throughout.
For `C=CC(=O)Nc1cc(Nc2nccc(-c3cn(C)c4ccccc34)n2)c(OC)cc1N(C)CCN(C)C` [OSIMERTINIB], the IC50 was determined as 1550 nM with BaF3 [10], 1760 nM in the data set with BaF3 [11], […] in the data set with A-431 and 2600 nM in “cells”.

The values above are taken from ChEMBL document CHEMBL6127132, “Design, Synthesis, and Biological Evaluation of Novel Diaminopyrimidine Macrocycles as Fourth Generation Reversible EGFR Inhibitors That Overcome Clinical Resistance to Osimertinib Mediated by C797S Mutation” (J Med Chem, 2024).
